In patent publication US20260365695A1, “NOVEL PEPTIDE EXHIBITING SKIN CONDITION IMPROVEMENT ACTIVITY AND COSMETIC COMPOSITION CONTAINING SAME” (DAEBONG LS CO., LTD., priority 2023, published 2026):
Where a SMILES comes first, the peptide text is derived from it.

Tests used:
[1] = test system: procollagen type I peptide production; experiment: Procollagen Type I Peptide (PIP) production in NHDF cells (EIA); type: cell-based, Human
Protocol: Normal Human Dermal Fibroblasts (NHDF) were obtained from Lonza (Lonza Walkersville, Inc.) and cultured in FBM (Fibroblast Basal Medium) supplemented with 0.1% hFGF-B, insulin, GA-1000, and 2% FBS at 37 °C in a 5% CO2 incubator. Subculture was performed every 2 to 3 days.
NHDF cells were seeded at 2.0×10^4 cells/well in a 24-well plate and incubated for 24 hours at 37 °C in a 5% CO2 incubator. After incubation, the culture medium was replaced with serum-free FBM, and the peptide prepared in the above Example was applied at concentrations of 1-100 μM, followed by incubation for 24 hours. The supernatant from each experimental group was collected, and the amount of procollagen released into the medium was measured. The positive control group was treated with ascorbic acid at a concentration of 0.001 v/v %. Measurement of procollagen levels was performed using a Procollagen Type I Peptide (PIP) EIA Kit (Takara Biomedical Co.) according to the manufacturer's protocol. The quantitative results of procollagen type I peptide production following treatment with the peptide of the Example are shown in Table 3 and FIG. 4.

[2] = test system: hyaluronic acid production; experiment: Hyaluronic acid (HA) production in HaCaT cells (ELISA); type: cell-based, human
Protocol: The HaCaT human keratinocyte cell line was obtained from Cell Line Service GmbH (Germany). The cells were cultured in DMEM containing 1% penicillin-streptomycin and 10% fetal bovine serum (FBS) at 37 °C in a 5% CO2 incubator, and subculture was performed every 2 to 3 days.
HaCaT cells were seeded at 1.0×10^5 cells/well in a 24-well plate and incubated for 24 hours at 37 °C in a 5% CO2 incubator. After incubation, the culture medium was replaced with serum-free DMEM, and the peptide prepared in the above Example was applied at concentrations of 50-200 μM, followed by incubation for 24 hours.
The supernatant from each experimental group was collected, and the amount of hyaluronic acid (HA) released into the medium was measured. The positive control group was treated with N-acetylglucosamine at a concentration of 10 mM. Measurement of hyaluronic acid production was conducted using a Hyaluronic Acid ELISA Kit (Cusabio Biotechnology Co., Ltd.) following the manufacturer's protocol.

[3] = test system: nitric oxide (NO) production; experiment: Inhibition of Nitric Oxide (NO) Production (griess reagent) in LPS-stimulated RAW264.7 cells; type: cell-based; conditions: 24 hours; for NO Production (%): LPS 1 μg/ml, relative to LPS control = 100
Protocol: (§1) RAW264.7 macrophage cells were obtained from the American Type Culture Collection (ATCC) and cultured in Dulbecco's Modified Eagle's Medium (DMEM) containing 100 units/mL penicillin-streptomycin and 10% (v/v) fetal bovine serum (FBS) at 37 °C in a 5% CO2 incubator, and subculture was performed every 2 to 3 days.
RAW264.7 cells were seeded at 1.5×10^5 cells/well in a 24-well plate and incubated for 18 hours at 37 °C in a 5% CO2 incubator. The cells were then treated with the peptide prepared in the above Example at concentrations of 50-200 μM and incubated for 24 hours.
From each experimental group, 100 μL of the supernatant was collected into a 96-well plate, and 100 μL of griess reagent was added. The mixture was allowed to react at room temperature for 10 minutes, and absorbance was measured at 540 nm using a microplate reader. The positive control group was treated with 2 µM of 2-amino-4-methylpyridine (2-AM). The relative levels of NO production following the treatments described in the above Example, based on NO production induced by the stimulant (LPS), are shown in Table 1 and FIG. 2 below.

[4] = Cytotoxicity Evaluation in Macrophages (EZ-Cytox Assay); type: cell-based; conditions: mouse, positive control, LPS 1 μg/ml, RAW264.7 cells, control = 100, read-out: Cell viability (%)
Protocol: as §1
The EZ-cytox assay is a representative method for measuring cell viability using the principle that water-soluble tetrazolium salts (WSTs) react with dehydrogenases of viable cells to produce a water-soluble orange formazan.
To evaluate cytotoxicity, RAW264.7 cells were seeded at 1.5×10^4 cells/well in a 96-well plate using DMEM supplemented with 10% FBS and incubated for 18 hours at 37 °C in a 5% CO2 incubator. The test samples were then applied to the cultured cells. After treatment, EZ-cytox was added to each well and incubated for 30 minutes under the same conditions. Absorbance was measured at 450 nm using a microplate reader. The mean absorbance values of each sample group were compared with the control group to determine cell viability.

[5] = 50 μM, 24 hours, untreated group = 100
[6] = 100 μM, 24 hours, untreated group = 100

SMILES: O=C1O[C@H]([C@@H](O)CO)C(O)=C1O [Asc. A, ascorbic acid, reference compound]
- activity at 10 µg/mL ([1]; Homo sapiens, 24 h, 10 μg/mL, positive control, untreated group = 100): 176 ± 3.91%

SMILES: N[C@@H](Cc1ccc(O)cc1)C(=O)NCC(=O)N[C@@H](CO)C(=O)N[C@@H](CC(=O)O)C(=O)O [Example, Tyr-Gly-Ser-Asp] (H-YGSD-OH)
- Procollagen production (%) ([1]; 1 μM, 24 hours, untreated group = 100): 103.47 ± 6.38%
- Procollagen production (%) ([1]; 10 μM, 24 hours, untreated group = 100): 110.79 ± 5.44%
- Procollagen production (%) [1, 5]: 121.67 ± 3.57%
- Procollagen production (%) [1, 6]: 132.38 ± 1.24%
- procollagen production, result in words ([1]; 1-100 μM, 24 hours): increase in procollagen production
- Hyaluronic acid production (%) [2, 5]: 105.1 ± 5.45%
- Hyaluronic acid production (%) [2, 6]: 123.64 ± 0.81%
- Hyaluronic acid production (%) ([2]; 200 μM, 24 hours, untreated group = 100): 132.68 ± 22.43%
- hyaluronic acid production, result in words ([2]; 50-200 μM, 24 hours): increase in hyaluronic acid production
- NO Production (%) ([3]; 50 μM): 101.55 ± 2.59%
- NO Production (%) ([3]; 100 μM): 91.42 ± 4.58%
- NO Production (%) ([3]; 200 μM): 86.51 ± 2.39%
- NO production, result in words ([3]; 50-200 μM, LPS): inhibit NO production in a concentration-dependent manner

SMILES: CC(=O)N[C@H]1C(O)O[C@H](CO)[C@@H](O)[C@@H]1O (stereo partly shown) [NAG, N-acetylglucosamine, reference compound]
- activity at 10000 µM ([2]; Homo sapiens, 24 h, 10 mM, positive control, untreated group = 100): 121 ± 10.4%

SMILES: Cc1ccnc(N)c1 [Example 2-AM, 2-amino-4-methylpyridine, reference compound]
- viability at 10 µM [4]: 94.1 ± 1.76%
